Results: patent US20180162844A1, “CYCLOPROPANE DERIVATIVE AND DRUG CONTAINING SAME” (EA PHARMA CO., LTD., priority 2015, published 2018)

These compounds were tested against T1, human TRPA1 (Homo sapiens, UniProt O75762) (assay: Measurement of TRPA1 antagonist activity (intracellular calcium increase, allylisothiocyanate stimulation, 293T cells transfected with human TRPA1 expression plasmid)). Conditions: Examples (Table 8-1); 293T cells expressing human TRPA1, allylisothiocyanate stimulation, FLIPR Calcium4, test substance added 10 min before AITC; read-out: hTRPA1 IC50.
T1 construct: full-length human TRPA1 gene was amplified; expressed in transfected cells; host or cells: Human embryonic kidney-derived 293T cells, transient transfection with pcDNA3.1/zeo(+) human TRPA1 expression plasmid
T1 sequence (O75762 whole entry): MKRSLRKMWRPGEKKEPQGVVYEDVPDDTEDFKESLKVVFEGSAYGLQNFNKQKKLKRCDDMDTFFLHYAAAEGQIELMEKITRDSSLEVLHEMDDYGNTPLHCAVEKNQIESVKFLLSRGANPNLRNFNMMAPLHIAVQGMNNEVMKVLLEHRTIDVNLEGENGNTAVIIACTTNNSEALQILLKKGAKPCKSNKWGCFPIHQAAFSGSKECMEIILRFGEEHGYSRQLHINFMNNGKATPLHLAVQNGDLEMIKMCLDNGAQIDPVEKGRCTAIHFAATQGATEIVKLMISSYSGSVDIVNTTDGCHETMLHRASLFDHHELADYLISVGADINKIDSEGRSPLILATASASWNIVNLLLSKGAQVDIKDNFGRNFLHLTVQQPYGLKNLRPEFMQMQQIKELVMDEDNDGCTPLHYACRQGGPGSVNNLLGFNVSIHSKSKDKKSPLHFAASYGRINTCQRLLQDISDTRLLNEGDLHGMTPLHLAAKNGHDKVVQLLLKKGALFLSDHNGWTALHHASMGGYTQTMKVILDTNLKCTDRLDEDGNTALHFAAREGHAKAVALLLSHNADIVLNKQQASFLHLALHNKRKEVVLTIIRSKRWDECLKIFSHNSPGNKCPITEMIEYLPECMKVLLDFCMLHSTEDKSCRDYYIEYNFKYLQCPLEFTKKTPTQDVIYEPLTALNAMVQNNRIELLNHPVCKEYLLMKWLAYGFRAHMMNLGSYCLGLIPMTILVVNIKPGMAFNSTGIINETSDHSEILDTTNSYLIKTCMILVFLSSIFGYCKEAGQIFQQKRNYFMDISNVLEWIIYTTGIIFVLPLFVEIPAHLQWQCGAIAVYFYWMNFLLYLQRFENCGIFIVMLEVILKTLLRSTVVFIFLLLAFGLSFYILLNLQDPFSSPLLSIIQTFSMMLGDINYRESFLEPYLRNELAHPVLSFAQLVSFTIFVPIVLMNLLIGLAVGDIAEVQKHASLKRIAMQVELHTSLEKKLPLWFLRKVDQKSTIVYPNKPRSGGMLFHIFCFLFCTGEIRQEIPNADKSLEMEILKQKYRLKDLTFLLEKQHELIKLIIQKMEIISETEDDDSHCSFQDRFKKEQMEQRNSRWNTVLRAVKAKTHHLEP
Format: cell-based
Protocol: Experimental Example 1: Measurement of TRPA1 antagonist Activity
Human TRPA1 Expression Plasmid
Using cDNA encoding human TRPA1 (GenBank accession No. NM_007332) (manufactured by Kazusa DNA Research Institute, item No.: FHC07217) as a template, primer 1 (SEQ ID NO: 1) and primer 2 (SEQ ID NO: 2), PCR by PfuUltra High-Fidelity DNA Polymerase (Stratagene) was performed, and full-length human TRPA1 gene was amplified.
A recognition site (underlined) of restriction enzyme HindIII was added to the 5′ end of human TRPA1 gene, and XbaI site (underlined) was added to the 3′ end of human TRPA1 gene, and GTT of the template sequence was changed to termination codon TAG (bold). The obtained double stranded DNA was enzyme-digested with HindIII and XbaI, and introduced into a multicloning site of expression plasmid pcDNA3.1/zeo(+) (manufactured by Invitrogen) to give a human TRPA1 expression plasmid.
Human embryonic kidney-derived 293T cells were cultured in Dulbecco's Modified Eagle Medium containing 10% fetal bovine serum, 10 unit penicillin, and 10 μg streptomycin. One day before assay, 3×10^6 of 293T cells were plated on a petri dish having a diameter of 10 cm, and cultured in a CO2 incubator for 24 hr. OPTI-MEM I Reduced Serum Media (Invitrogen). (600 μL), Mirus TransIT-293 (Mirus Bio) (18 μL), and human TRPA1 expression plasmid (6 μg) were mixed, the total amount of the mixture was added to the cells on the petri dish to allow for gene transfer. The cells were recovered about for 8 hr later, plated on a poly-D-lysine coated 384 well black/clear bottom plate at 12,000 cells/well, and cultured overnight.
Measurement of Intracellular Calcium Increase
The medium was removed from the 384 well plate, calcium indicator (Molecular Device, trade name: FLIPR Calcium4 Assay Kit) dissolved in HBSS (Thermo Fisher Scientific) (pH 7.2) containing 20 mM HEPES was added (38 μL/well), and the cells were stained in a CO2 incubator for 1 hr. The 384 well plate was stood at room temperature for not less than 15 min, set on FDSS7000 (Hamamatsu Photonics K.K.), and a test substance solution was added at 10 μL/well. After 10 min, allylisothiocyanate solution (12 μL/well) was added, the relative fluorescence intensity was measured for 5 min after addition of the allylisothiocyanate solution.
Preparation of Test Substance Solution and Allylisothiocyanate Solution
A test substance solution was prepared to have a composition of HBSS (Thermo Fisher Scientific) (pH 7.2) containing 0.48% dimethyl sulfoxide, a test substance at 4.8-fold concentration of the evaluation concentration, 0.1% bovine serum albumin and 20 mM HEPES. An allylisothiocyanate solution was prepared to have a composition of HBSS (Thermo Fisher Scientific) (pH 7.2) containing 0.1% dimethyl sulfoxide, 100 μM allylisothiocyanate, 0.1% bovine serum albumin and 20 mM HEPES.
Calculation of Antagonist Activity
The activity rate of a test substance at each concentration was calculated, wherein the relative fluorescence intensity change of a well free of a test substance and containing allylisothiocyanate is 100% activity rate, and the relative fluorescence intensity change of a well free of a test substance and allylisothiocyanate is 0% activity rate. The inhibitory rate of a test substance at each concentration was calculated by subtracting the activity rate of the test substance from 100% activity rate, and the concentration of a test substance showing 50% inhibitory rate was calculated as IC50 from the sigmoid approximate curve by XLFit (idbs).

Row | IC50 | Structure (SMILES)
1 | 77 nM | O=C(NCc1cc(-c2ccc(C(F)(F)F)cc2)ncn1)C1(NS(=O)(=O)c2cc3ccccc3o2)CC1 [Example 21, 1-(benzofuran-2-ylsulfonylamino)-N-[[6-[4-(trifluoromethyl)phenyl]pyrimidin-4-yl]methyl]cyclopropanecarboxamide]
2 | 130 nM | O=C(NCc1cc(-c2ccc(C(F)(F)F)cn2)ccn1)C1(NS(=O)(=O)c2cc3ccccc3o2)CC1 [Example 22, 1-(benzofuran-2-ylsulfonylamino)-N-[[4-[5-(trifluoromethyl)-2-pyridyl]-2-pyridyl]methyl]-cyclopropanecarboxamide]
3 | 100 nM | CN(C)c1nc(CNC(=O)C2(NS(=O)(=O)c3cc4ccccc4o3)CC2)cc(-c2ccc(C(F)(F)F)cc2)n1 [Example 23, 1-(benzofuran-2-ylsulfonylamino)-N-[[2-(dimethylamino)-6-[4-(trifluoromethyl)phenyl]pyrimidin-4-yl]methyl]cyclopropanecarboxamide]
4 | 3.3 nM | CC(C)N(C1(C(=O)NCc2cc(-c3ccc(C(F)(F)F)nc3)ncn2)CC1)S(=O)(=O)c1cc2cc(F)ccc2o1 [Example 24, 1-[(5-fluorobenzofuran-2-yl)sulfonyl-isopropyl-amino]-N-[[6-[6-(trifluoromethyl)-3-pyridyl]pyrimidin-4-yl]methyl]cyclopropanecarboxamide]
5 | 8.1 nM | CC(C)N(C1(C(=O)NCc2cc(-c3ccc(C(F)(F)F)nc3)ncn2)CC1)S(=O)(=O)c1cc2ccccc2o1 [Example 25, 1-[benzofuran-2-ylsulfonyl(isopropyl)amino]-N-[[6-[6-(trifluoromethyl)-3-pyridyl]pyrimidin-4-yl]methyl]cyclopropanecarboxamide]
6 | 45 nM | O=C(NCc1cc(-c2ccc(C(F)(F)F)cc2)ncn1)C1(NS(=O)(=O)c2cc3cnccc3o2)CC1 [Example 26, 1-(furo[3,2-c]pyridin-2-ylsulfonylamino)-N-[[6-[4-(trifluoromethyl)phenyl]pyrimidin-4-yl]methyl]cyclopropanecarboxamide]
7 | 1.2 nM | CN(C1(C(=O)NCc2cc(-c3ccc(C(F)(F)F)cn3)ccn2)CC1)S(=O)(=O)c1cc2cc(F)ccc2o1 [Example 29, 1-[(5-fluorobenzofuran-2-yl)sulfonyl-methyl-amino]-N-[[4-[5-(trifluoromethyl)-2-pyridyl]-2-pyridyl]methyl]-cyclopropanecarboxamide]

Continued, compound first:

Row | Structure (SMILES) | IC50
8 | O=C(NCc1ccc(O)c(-c2ccc(C(F)(F)F)cn2)c1)C1(NS(=O)(=O)c2cc3cc(F)ccc3o2)CC1 [Example 18, 1-[(5-fluorobenzofuran-2-yl)sulfonylamino]-N-[[4-hydroxy-3-[5-(trifluoromethyl)-2-pyridyl]phenyl]methyl]-cyclopropanecarboxamide] | 25 nM
9 | CN(C)c1nc(CNC(=O)C2(NS(=O)(=O)c3cc4cc(F)ccc4o3)CC2)cc(-c2ccc(C(F)(F)F)cc2)n1 [Example 19] | 38 nM
10 | O=C(NCc1cc(-c2ccc(C(F)(F)F)cc2O)ncn1)C1(NS(=O)(=O)c2cc3cc(F)ccc3o2)CC1 [Example 20, 1-[(5-fluorobenzofuran-2-yl)sulfonylamino]-N-[[6-[2-hydroxy-4-(trifluoromethyl)-phenyl]pyrimidin-4-yl]methyl]cyclopropanecarboxamide] | 23 nM
11 | O=C(NCc1cc(-c2ccc(C(F)(F)F)cc2)nc(N2CCCC2)c1)C1(NS(=O)(=O)c2cc3cc(F)ccc3o2)CC1 [Example 27, 1-[(5-fluorobenzofuran-2-yl)sulfonylamino]-N-[[2-pyrrolidin-1-yl-6-[4-(trifluoromethyl)phenyl]-4-pyridyl]methyl]-cyclopropanecarboxamide] | 86 nM
12 | O=C(NCc1cc(-c2ccc(C(F)(F)F)cc2)nc(N2CCCC2)c1)C1(NS(=O)(=O)c2cc3ccccc3o2)CC1 [Example 28, 1-(benzofuran-2-ylsulfonylamino)-N-[[2-pyrrolidin-1-yl-6-[4-(trifluoromethyl)phenyl]-4-pyridyl]methyl]-cyclopropanecarboxamide] | 260 nM
